Patent publication US12697366B2, “Thermogenic compositions and methods” (Ohio State Innovation Foundation, priority 2016, dated 2026)

Legend:
3T3-L1 adipocytes = assay: LTA axon guidance gene expression in 3T3-L1 adipocytes (NanoString mouse innervation panel); format: cell-based; conditions: 24 hrs; for Efna5 and Epha4 expression: TTNPB 50 nM or BMS493 100 nM
Experimental: FIG. 5A to 5I show retinoids regulate the LTA axon guiding secretome via ephrin A5. FIG. 5A: DRG neurons were cultured in DRG culture medium with secretome from Aldh1a1^−/− adipocytes (1/1, v/v) that were treated with or without RA (100 nM). RA was added to Aldh1a1^−/− differentiation medium (Day 0, 2, 5). To prepare this secretome, medium was collected for last 24 hours. Representative images were selected from three independent experiments. Average neurite growth indices were measured by XTI microscopy in DRG neurons in DRG culture medium containing veh (white bar), NGF (vertical lined bar), or Aldh1a1^−/− secretome treated without (black bar) or with RA (hatched bar). An asterisk indicates P<0.05; Mann-Whitney U test. FIG. 5B: 3T3-L1 adipocytes (n=3) were cultured in differentiation medium for 4 days. At day 5, medium was replaced by UV-treated 1% FBS-contained DMEM with and without Rald (30 nM). 24 hrs post stimulation, cells were harvested for mRNA. The gene expression was measured by the customized NanoString mouse innervation panel. […] Gene expression was measured by the NanoString mouse innervation panel. […] Protein levels of ephrin-A5 ligand (EFNA5) in medium EFNA5 and β-actin in cell lysates were analyzed by Western blot at Day 0, 2, 4, and 6. FIG. 5F: Plasma from WT and Aldh1a1^−/− mice (Table 1, Study 4) was measured by EFNA5 ELISA (n=5 per group) Table 1, Study 4. […] FIG. 5H: Tyrosine hydroxylase (TH) protein levels was analyzed in whole subcutaneous (Western blot insert) and iAb fat pads from mice injected with PBS (n=3) or EFNA5 (n=4, Table 1, Study 5) by Western blot. […] FIG. 5I: Heat (metabolic rate) was measured in PBS- and EFNA5-injected mice from Study 4 after 4° C. exposure by an open circuit indirect calorimetry treadmill (basal metabolic rate for 42 h is shown in FIG. 9C). […]
NanoString's nCounter analysis (NanoString Technologies) system performed direct detection of target molecules from a single sample using color-coded molecular barcodes, giving a digital quantification of the number of target molecules as described before (Shen et al., 2015, PMID: 25620076). […]

PPARα-LBD = PPARα-LBD luciferase reporter in transiently transfected HEK293 cells; format: cell-based, human; conditions: EREG 50 ng/mL; EGFR-I 10 μM, MAPK-I 10 μM, HSL-I 10 μM, SRC-I 1 μM, PI3K-I 100 nM
Experimental: FIGS. 11A to 11I show adipokine Ereg is bilaterally associated with obesity and thermogenesis and activates PPARα. […] Microarray gene analysis was performed using Affymetrix microarray. FIG. 11B: Ereg expression was measured in non-differentiated and differentiated (day 5) 3T3-L1 adipocytes (Mann-Whitney test) using a customized NanoString mouse panel. FIG. 11C: Ereg expression was measured in differentiated (day 5) 3T3-L1 and Aldh1a1^−/− adipocytes by Taqman and normalized to TATA box protein (TBP). FIG. 11D: Plasma EREG concentrations were measured in mice from Study 1 by western blot. […] FIG. 11E: Plasma EREG concentrations were measured and quantified in iAb of WT and ob/ob mice from Study 2 by western blot (n=5 per each group). […] FIG. 11F: EREG was measured in iAb, subcutaneous and brown fat by western blot. Fat pads were dissected from WT mice on regular chow (Study 1). FIG. 11G: Ucp2 and Ucp1 expression was measured in differentiated 3T3-L1 adipocytes (day 5) stimulated with vehicle (PBS) or recombinant EREG (50 ng/mL) added in the differentiation medium I and II. Expression level were measured by Taqman and normalized by TBP. FIGS. 11H and 11I: HEK293 cells were transiently transfected with PPARα-LBD, UASTK-luciferase, and renilla. […] Data represents % PPARα-LBD activation. Asterisks indicate significant difference (p<0.05) compared to vehicle control, #, indicates statistical difference between PPARα-LBD activation by EREG alone and in the presence of inhibitors. Data represent mean±SD. The Mann-Whitney test was used throughout these studies for group comparison.
HEK293 cells ([…] cells, 24-well plates) were used for transient transfection experiments. Cells were transfected with human PPARα-LBD construct, yeast UASTK luciferase reporter (SwitchGear Genomics, Menlo Park, CA), using Fugene (Roche Applied Science, Indianapolis, IN). Transfections were carried out in OptiMeM (Invitrogen, Carlsbad, CA) medium for 12 hours as described previously. Luciferase was measured using Promega assay according to manufacturer's instructions

[1] = test system: iAb (omental) fat explants; assay: LEP release from iAb (omental) fat explants of an obese patient (ELISA); format: cell-based, human; conditions: EGFR-I, MAPK-I, PI3K-I
Experimental: FIGS. 14A to 14N show EREG induces expression of thermogenic and PPARα-target genes, suppresses inflammatory genes, and stimulates leptin secretion. FIGS. 14A to 14H and 14L: Markers for thermogenesis, adipogenesis, and inflammatory genes were analyzed using homogenates from whole iAb fat pads isolated from Veh- (white bars) and EREG-treated (black bars) DIO mice (Study 3). Gene expression was quantified using a customized NanoString panel. Data represent mean±SD, n.s.,—non-significant. FIG. 14I: LEP was measured in plasma in the same mice by ELISA. Data (mean±SD) are shown as percent to control (Veh, 100%) and is indicated as a dashed line. FIG. 14J: LEP release after stimulation with different concentrations of recombinant human EREGs was measured in explants of iAb (omental) tissue obtained from an obese insulin resistant patient. FIG. 14K: LEP release after stimulation of explants from same donor with and without EREG (50 ng/mL) in the presence and absence of insulin (Ins, 10 μg/mL), MAPK-I, EGFR-I, PI3K-I. Inhibitors concentrations were described in FIG. 1. FIG. 14M: LEP release after stimulation of iAb fat explants (2 h) from WT mice with different concentrations of recombinant mouse EREG. Experiment was repeated in three different WT mice. Data (mean±SD) are shown as percent to control (Veh, 100%). FIG. 14N: LEP release following stimulation of iAb fat explants (2 h) from WT mice with inhibitors of EGFR (10 μM) and MAPK (10 μM) in the presence or absence of EREG (50 ng/ml). Data (mean±SD) are shown as percent to control (Veh, 100%).
Abdominal fat tissue obtained from an obese patient was excised into 35 mg sections for stimulation with EREG. Explants were stimulated with EREG in DMEM containing 1% FBS for 2 h. Media was collected after 2 h, lyophilized and reconstituted in 120 μL deionized water for leptin detection using ELISA kit (Alpco, Salem, NH).

3T3-L1 preadipocytes = assay: FD-glucose uptake in 3T3-L1 preadipocytes; format: cell-based, mouse; conditions: 30 mins; insulin 10 μg/ml, EREG 50 ng/ml, forskolin 4 μg/ml
Experimental: Non-differentiated, 90% confluent 3T3-L1 cells were starved with glucose-deprived medium for 40 min. Then cells were treated in the presence and absence of different concentrations of nanoscaffold #2 and bovine insulin (200 μg/mL), all of reagents dissolved in the same glucose-deprived medium but containing fluorescent-D (FD)-glucose for 80 min. Thereafter, the FD glucose uptake was measured according to manufacturer's instructions (Cayman Chemical, USA, cat #600471). […] Non-differentiated, 90% confluent 3T3-L1 cells treated in the presence and absence of different concentrations of nanoscaffold #2 and bovine insulin (10 μg/mL) or mouse epiregulin (EREG, 0.05 μg/mL) and incubated for 24 h. Then cells were starved with glucose-deprived medium for 40 min and, then incubated with fluorescent-D (FD)-glucose for 80 min. Thereafter, the FD glucose uptake was measured according to manufacturer's instructions (Cayman Chemical, USA, cat #600471). Data are shown as percent of uptake in the presence of insulin (100%).
Non-differentiated, 90% confluent 3T3-L1 cells treated in the presence of bovine insulin (10 μg/mL), mouse epiregulin (EREG, 0.05 μg/mL), or their combinations and incubated for 24 h. Then cells were starved with glucose-deprived medium for 40 min and, then incubated with fluorescent-D (FD)-glucose for 80 min. Thereafter, the FD glucose uptake was measured according to manufacturer's instructions (Cayman Chemical, USA, cat #600471).
Non-differentiated, 90% confluent 3T3-L1 cells were starved with glucose-deprived medium for 50 min. Then cells were treated in the presence and absence of different concentrations of mouse recombinant IGFBP4 with and without nanoscaffold #2 and human insulin (10 μg/mL). All of reagents were dissolved in the same glucose-deprived medium but containing fluorescent-D (FD)-glucose for 90 min. Thereafter, the FD glucose uptake was measured according to manufacturer's instructions (Cayman Chemical, USA, cat #600471).
Glucose uptake assay was performed using glucose uptake cell-based assay kit (Cayman Chemical, Ann Arbor, MI). 3T3-L1 or human preadipocytes were cultured at a density of 5×10^4 per well into a 96-well plate (n=7) in high glucose media and grown overnight. Old cell culture medium was removed the next day and washed with PBS to remove residual glucose. Supplied 2-deoxy-2-[(7-nitro-2,1,3-benzoxadiazol-4-yl)amino]-D-glucose) (2-NBDG) was diluted to 150 μg/mL in DMEM medium without glucose, phenol red, L-glutamine, sodium pyruvate, and HEPES (Life technologies, Grand Island, New York). 100 μL of 2-NBDG glucose free medium with or without recombinant EREG and other treatments was added to the plated cells. After incubating at 37° C. for 30 minutes, cells were washed gently two times with 200 μL of glucose assay buffer. 100 μL of the assay buffer was added to each well and measured for fluorescence at an excitation/emission of 485/535 nm.
Fluorescence glucose uptake (FD-glucose assay) was performed as described PMID: 32065973, using insulin, 1.7 μM and different AACs at concentration 0.1 μM.
FD-glucose uptake in mouse 3T3-L1 preadipocytes (n=8 per treatment) treated with vehicle (Veh; PBS, open bar) or hINS (1.7 μM), mouse leptin (mLep; 12.5 nM, hatched bar), or AAC2 (0.1 μM black bar) in the presence and absence of GLUT1 inhibitor (BAY-876; 10 nM in DMSO). Cells were pre-treated with or without BAY-876 for 40 min and then FD glucose and treatment reagents were added for additional 80 min of incubation. Data (%) was normalized to FD-glucose uptake in control (Veh) 3T3-L1 cells without inhibitor (100%). Student's independent t-test.

## CC1(C)CC=C(C#Cc2ccccc2)c2cc(/C=C/c3ccc(C(=O)O)cc3)ccc21 [BMS429]
3T3-L1 adipocytes
  Efna5 and Epha4 expression: induced

## COc1cc2ncnc(Nc3cccc(Cl)c3)c2cc1OC [EGFR inhibitor, Tyrphostin AG1478]
PPARα-LBD
  EREG-dependent PPARα-LBD activation in the presence of inhibitor: abolished
[1]
  EREG / insulin mediated LEP release in the presence of inhibitor: inhibited

## COc1nn(-c2ccc(NC(=O)OCc3ccccc3)c(C)c2)c(=O)o1 [HSL inhibitor, CAY10499]
PPARα-LBD
  EREG-dependent PPARα-LBD activation in the presence of inhibitor: abolished

## N#CC(=C(/N)Sc1ccccc1N)/C(C#N)=C(\N)Sc1ccccc1N [MAPK inhibitor, U0126]
PPARα-LBD
  EREG-dependent PPARα-LBD activation in the presence of inhibitor: abolished
[1]
  EREG / insulin mediated LEP release in the presence of inhibitor: inhibited

## COc1ccc(Cl)c(Nc2ncnc3cc(OCC4CCN(C)CC4)c(OC)cc23)c1 [SRC inhibitor, AZM475271]
PPARα-LBD
  EREG-dependent PPARα-LBD activation in the presence of inhibitor: now effect

## C/C(=C\c1ccc(C(=O)O)cc1)c1ccc2c(c1)C(C)(C)CCC2(C)C [TTNPB]
3T3-L1 adipocytes
  Efna5 and Epha4 expression: suppressed

## C=C[C@@]1(C)CC(=O)[C@]2(O)[C@@]3(C)[C@@H](O)CCC(C)(C)[C@@H]3[C@H](O)[C@H](OC(C)=O)[C@@]2(C)O1 [forskolin, reference compound]
3T3-L1 preadipocytes
  glucose uptake compared to non-stimulated 3T3-L1 preadipocytes: 245%

## CC1=C(/C=C/C(C)=C/C=C/C(C)=C/C=O)C(C)(C)CCC1 [retinaldehyde]
3T3-L1 adipocytes; Rald 30 nM
  expression of molecules associated with the LTA-axon guidance secretome: significantly increased
